# Patent US12285426B2, “Combination serotonin specific reuptake inhibitor and serotonin 1A receptor partial agonist for reducing L-DOPA-induced dyskinesia” (The Research Foundation for The State University of new York, priority 2018, dated 2025)
# Legend:
# [1] = tested on: L-DOPA-induced dyskinesia; test: FIG. 24: LID development over 14 days, vilazodone and/or amantadine; type: in vivo; settings: for ALO AIMs, LID development: over 14 days
# Source text: FIGS. 24B-24E show percent intact+S.E.M. over time for the respective groups.
# dyskinesia = settings: human and animal studies; cited from earlier work
# [2] = tested on: L-DOPA-induced dyskinesia; test: FIG. 23A-23C: ALO AIMs, vilazodone and/or amantadine with L-DOPA; settings: for ALO AIMs, combined amantadine and vilazodone: VZD 2.5 mg/kg, AMA 40 mg/kg, L-DOPA
# [3] = cited from earlier work
# [4] = tested on: lesion-induced motor deficits; test: FIG. 23D: % intact stepping; type: in vivo; settings: L-DOPA alone or with AMA 40 mg/kg and/or VZD 2.5 mg/kg
# TRPV1 ion channel = TRPV1 ion channel (Homo sapiens, UniProt Q8NER1); settings: depending on the pharmacological assay; cited from earlier work
# TRPV1 ion channel, sequence (Q8NER1 whole entry): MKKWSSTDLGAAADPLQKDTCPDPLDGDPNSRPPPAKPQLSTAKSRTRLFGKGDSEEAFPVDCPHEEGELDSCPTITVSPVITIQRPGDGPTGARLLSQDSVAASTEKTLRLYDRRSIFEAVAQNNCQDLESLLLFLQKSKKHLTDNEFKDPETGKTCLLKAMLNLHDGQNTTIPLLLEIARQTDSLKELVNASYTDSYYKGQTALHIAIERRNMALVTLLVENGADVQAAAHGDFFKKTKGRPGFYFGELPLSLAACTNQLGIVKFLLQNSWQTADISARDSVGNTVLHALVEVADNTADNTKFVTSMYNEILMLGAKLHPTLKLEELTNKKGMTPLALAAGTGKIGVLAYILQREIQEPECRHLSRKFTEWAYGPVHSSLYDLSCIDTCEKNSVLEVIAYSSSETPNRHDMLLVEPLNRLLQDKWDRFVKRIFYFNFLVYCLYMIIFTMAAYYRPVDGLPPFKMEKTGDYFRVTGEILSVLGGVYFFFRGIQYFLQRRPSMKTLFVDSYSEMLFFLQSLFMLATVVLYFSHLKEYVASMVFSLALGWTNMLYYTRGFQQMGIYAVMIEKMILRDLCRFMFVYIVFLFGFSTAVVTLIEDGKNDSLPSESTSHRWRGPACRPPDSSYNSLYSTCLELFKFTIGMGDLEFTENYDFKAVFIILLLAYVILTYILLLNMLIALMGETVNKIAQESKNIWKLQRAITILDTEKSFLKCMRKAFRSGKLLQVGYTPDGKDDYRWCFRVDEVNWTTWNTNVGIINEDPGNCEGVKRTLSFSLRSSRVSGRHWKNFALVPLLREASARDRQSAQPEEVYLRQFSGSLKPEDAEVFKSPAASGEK
# SERT = SERT (Homo sapiens, UniProt P31645); settings: clinically effective dose range 5-20 mg/day; cited from earlier work
# SERT, sequence (P31645 whole entry, species assumed): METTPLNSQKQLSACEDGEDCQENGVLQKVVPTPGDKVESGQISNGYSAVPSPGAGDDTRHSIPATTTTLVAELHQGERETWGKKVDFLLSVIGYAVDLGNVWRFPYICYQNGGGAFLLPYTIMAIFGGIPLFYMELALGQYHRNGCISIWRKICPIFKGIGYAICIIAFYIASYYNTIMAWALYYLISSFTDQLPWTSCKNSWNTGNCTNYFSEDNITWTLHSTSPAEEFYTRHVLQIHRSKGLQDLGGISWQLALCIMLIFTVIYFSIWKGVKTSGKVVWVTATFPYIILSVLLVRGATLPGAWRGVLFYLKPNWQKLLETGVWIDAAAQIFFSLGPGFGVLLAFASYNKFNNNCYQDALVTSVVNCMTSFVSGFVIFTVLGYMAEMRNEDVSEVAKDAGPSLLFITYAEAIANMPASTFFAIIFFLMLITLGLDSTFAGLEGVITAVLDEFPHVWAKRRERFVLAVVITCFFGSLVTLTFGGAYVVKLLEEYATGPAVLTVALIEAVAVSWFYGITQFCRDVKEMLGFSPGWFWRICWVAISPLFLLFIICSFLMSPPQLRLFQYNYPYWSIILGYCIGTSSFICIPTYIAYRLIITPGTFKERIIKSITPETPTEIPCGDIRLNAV
# [5] = tested on: extracellular levels of norepinephrine or dopamine; settings: 1 and 10 mg/kg; cited from earlier work
# [6] = tested on: 6-OHDA-lesioned rats, forelimb akinesia; test: Experiment 2: forepaw adjusting steps (FAS); type: in vivo, rat
# Source text: (§1) Forepaw adjusting steps (FAS): The FAS test is a measure of forelimb akinesia performed according to previous protocols (Bishop et al., 2012; Chang et al., 1999). Data are presented as mean percent intact stepping where the sum of the total steps with the lesioned forepaw was divided by the total steps with the unlesioned forepaw multiplied by 100. Lower percent intact scores indicate greater forelimb akinesia. Prior to baseline, rats received 2 acclimation periods. On-treatment FAS was performed 60 min post-L-DOPA.
# [7] = tested on: L-DOPA-primed 6-OHDA-lesioned rats; 5-HT1AR
# [8] = tested on: L-DOPA-primed 6-OHDA-lesioned rats; 5-HT1BR; test: Experiment 3: AIMs with 5-HT1BR antagonist NAS-181; type: in vivo, rat; settings: VZD 10 mg/kg, NAS-181 3.0 mg/kg, LD 6 mg/kg s.c.
# Method: All 6-OHDA-lesioned rats (n=17) were tested on the FAS prior to treatment regimens to establish baseline motor performance. Three-weeks post-surgery, all rats were primed with L-DOPA (6 mg/kg, s.c.) for 14 days.
# Beginning 10 min post-treatment, a trained and blinded observer assigned a severity score (0-4) to each of the ALO AIMs based on 1 min ratings every 10 min for 3 h: 0, not present; 1, present from 1-29 s; 2, present 30-59s; 3, present all 60 s, but interruptible by a cylinder tap; 4, present 60 s and not interruptible by a cylinder tap.
# DAT = DAT (Homo sapiens, UniProt Q01959); settings: cited from earlier work
# DAT, sequence (Q01959 whole entry, species assumed): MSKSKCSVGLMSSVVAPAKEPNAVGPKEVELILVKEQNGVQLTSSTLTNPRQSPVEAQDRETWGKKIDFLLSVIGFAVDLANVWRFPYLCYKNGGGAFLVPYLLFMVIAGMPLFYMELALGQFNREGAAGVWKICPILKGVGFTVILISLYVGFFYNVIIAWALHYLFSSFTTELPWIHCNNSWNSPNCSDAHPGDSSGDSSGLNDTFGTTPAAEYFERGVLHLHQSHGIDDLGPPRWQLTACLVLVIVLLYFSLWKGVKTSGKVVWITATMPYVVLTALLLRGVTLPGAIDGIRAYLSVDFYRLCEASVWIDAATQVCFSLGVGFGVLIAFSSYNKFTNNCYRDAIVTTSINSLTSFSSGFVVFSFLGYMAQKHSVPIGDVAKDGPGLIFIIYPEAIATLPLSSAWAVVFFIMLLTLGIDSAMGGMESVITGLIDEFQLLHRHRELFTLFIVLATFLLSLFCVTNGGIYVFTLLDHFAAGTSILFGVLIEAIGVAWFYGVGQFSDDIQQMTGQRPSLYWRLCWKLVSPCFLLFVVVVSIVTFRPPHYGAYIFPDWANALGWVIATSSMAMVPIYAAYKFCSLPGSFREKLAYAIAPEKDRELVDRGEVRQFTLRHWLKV
# [9] = tested on: striatal c-Fos, PPD, PPE, PPT, 5-HT1AR mRNA; test: Experiment 2: real-time RT-PCR of striatal gene expression
# [10] = molecular target: T1, 5-HT1A receptor expressed in SF9 cells (Homo sapiens, UniProt P08908); settings: cited from earlier work
# T1 construct: expressed in transfected cells; host or cells: SF9 cells
# T1 sequence (P08908 1-422): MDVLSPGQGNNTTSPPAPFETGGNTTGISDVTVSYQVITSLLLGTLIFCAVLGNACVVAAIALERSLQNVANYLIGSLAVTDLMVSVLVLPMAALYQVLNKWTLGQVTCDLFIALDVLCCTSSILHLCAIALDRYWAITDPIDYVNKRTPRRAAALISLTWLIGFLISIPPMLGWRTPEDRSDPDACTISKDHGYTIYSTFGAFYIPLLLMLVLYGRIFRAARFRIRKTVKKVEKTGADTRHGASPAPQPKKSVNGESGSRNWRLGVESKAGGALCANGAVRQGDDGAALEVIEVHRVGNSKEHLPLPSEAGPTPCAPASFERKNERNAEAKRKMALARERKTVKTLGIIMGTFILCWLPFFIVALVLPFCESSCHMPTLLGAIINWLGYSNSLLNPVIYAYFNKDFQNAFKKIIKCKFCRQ
# [11] = tested on: 6-OHDA-lesioned rats, L-DOPA-induced dyskinesia; test: Experiment 1: AIMs, established LID in L-DOPA-primed hemi-parkinsonian rats; type: in vivo, rat
# [12] = tested on: 6-OHDA-lesioned rats, L-DOPA-induced dyskinesia; test: Experiment 2: AIMs, LID development in L-DOPA-naive hemi-parkinsonian rats; type: in vivo, rat; settings: VZD 10 or 20 mg/kg + LD 6 mg/kg, treatment naive, 3 weeks
# [13] = tested on: 6-OHDA-lesioned rats, L-DOPA-induced dyskinesias; test: Example 2: LIDs scoring in unilateral 6-OHDA-lesioned rats; type: in vivo, rat; settings: vilazodone 10 mg/kg or escitalopram 12.5 mg/kg + L-DOPA 5 mg/kg, 2 weeks
# Method: 6-OHDA-induced dopaminergic lesions: Adult male Sprague-Dawley rats were randomly assigned to groups receiving either a 6-OHDA or sham lesion. […] [[…] 2019]. […] Rats were treated for 5 consecutive days/week (Mon-Fri), for 2 weeks. […] All rats were evaluated three times per week for the presence of L-DOPA-induced dyskinesias (LIDs) (Wed-Fri) and once for the stepping test (Tue). […] Scores were given over 1 min epochs and classified as axial, limb, orolingual and locomotive. […] The severity of each LID was scored using a standard scale. Each dyskinetic behavior was given an intensity and frequency score, which were then multiplied. The average sum of the products of each LID was determined in each animal.
# NET = NET (Homo sapiens, UniProt P23975); settings: cited from earlier work
# NET, sequence (P23975 whole entry): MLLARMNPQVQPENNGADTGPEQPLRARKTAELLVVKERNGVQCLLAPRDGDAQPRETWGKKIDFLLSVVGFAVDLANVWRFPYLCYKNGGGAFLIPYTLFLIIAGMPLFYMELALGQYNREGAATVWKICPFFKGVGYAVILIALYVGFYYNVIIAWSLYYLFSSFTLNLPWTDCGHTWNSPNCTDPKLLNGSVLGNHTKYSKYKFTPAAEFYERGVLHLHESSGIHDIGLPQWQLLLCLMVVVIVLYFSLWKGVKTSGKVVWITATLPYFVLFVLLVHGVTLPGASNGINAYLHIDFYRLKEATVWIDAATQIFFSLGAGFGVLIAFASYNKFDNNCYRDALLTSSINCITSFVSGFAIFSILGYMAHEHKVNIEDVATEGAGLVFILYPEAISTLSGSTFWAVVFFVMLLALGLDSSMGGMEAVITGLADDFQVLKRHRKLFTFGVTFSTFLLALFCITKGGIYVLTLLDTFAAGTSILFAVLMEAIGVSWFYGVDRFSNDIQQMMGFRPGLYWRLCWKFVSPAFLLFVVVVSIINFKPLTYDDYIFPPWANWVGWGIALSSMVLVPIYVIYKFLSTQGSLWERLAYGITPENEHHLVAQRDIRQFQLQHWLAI
# [14] = tested on: 6-OHDA-lesioned rats, forelimb akinesia; test: Experiment 1: forepaw adjusting steps (FAS); type: in vivo, rat
# Source text: as §1, with “Conti et al., 2014). […] Forepaw” for “Forepaw”
# [15] = tested on: MSNs of dyskinetic 6-OHDA-lesioned rats; test: Example 2: electrophysiology of striatal MSNs; type: in vivo, rat; settings: co-administration with L-DOPA
# hemi-parkinsonian rats = test: Side effects during chronic Vilazodone treatment; type: in vivo, rat
# [16] = tested on: 6-OHDA-lesioned rats, forelimb akinesia; test: Example 2: stepping test; type: in vivo, rat; settings: 60 minutes post L-DOPA
# Method: 6-OHDA-induced dopaminergic lesions: Adult male Sprague-Dawley rats were randomly assigned to groups receiving either a 6-OHDA or sham lesion. All rats received desipramine (10 mg/kg i.p.) 30 min prior to surgery to prevent the lesioning of norepinephrine neurons by 6-OHDA. A single injection of 6-OHDA (8 μg of 6-OHDA free base in 4 p of 0.1% ascorbic acid) was delivered into the right medial forebrain bundle (coordinates taken from bregma: −4.3 mm AP, 1.6 mm ML, −8.3 mm DV). The same experimental treatment was performed for the sham-operated rats using vehicle (4 μl of 0.1% ascorbic acid). A standard stepping test was used to evaluate the effectiveness of the 6-OHDA lesion.
# Rats were treated for 5 consecutive days/week (Mon-Fri), for 2 weeks. On the second day of each week, stepping tests were performed prior to drug administration, and 60 minutes post L-DOPA treatment.
# [17] = tested on: striatum and DRN monoamines and metabolites; test: Experiment 1: HPLC of striatal and dorsal raphe tissue monoamines; type: in vivo, rat
# Method: Rats (n=30) were rendered hemi-parkinsonian with unilateral 6-OHDA lesions of the left MFB. Three-weeks post-lesion, animals were divided into 2 equally disabled groups, measured by forepaw adjusting steps (FAS, see below). One group (n=8) began receiving 14 days of daily vehicle (0.9% NaCl+0.1% ascorbic acid) and the other (n=22) received L-DOPA methyl ester (6 mg/kg, s.c.; Sigma)+DL-serine 2-(2,3,4-trihydroxybenzyl) hydrazine hydrochloride (benserazide; 15 mg/kg, s.c.; Sigma), hereafter L-DOPA, dissolved in vehicle at a volume of 1 mL/kg. […] Thereafter, L-DOPA-treated animals with Axial, Limb, and Orolingual (ALO) AIMs (see description below, FIG. 1A)<30 were excluded from the study and the remaining L-DOPA-treated animals were divided into 3 equally dyskinetic groups. […] Daily injections continued over 23 days, with behavior assayed on Days 15, 22, 29, and 36. On Day 37, animals were killed 60 min post-treatment. Left and right dorsal striata and DRN were dissected and flash frozen for HPLC analyses.
# High-performance liquid chromatography (HPLC): HPLC, a method for semi-automated catecholamine analysis with coulometric detection, was performed according to prior protocols (Bishop et al., 2009) to determine the tissue levels of monoamines, their metabolites, and monoamine turnover in the striatum and DRN. The limit of detection for DOPAC, DA, 5-hydroxyindoleacetic acid (5-HIAA) and 5-HT was 10^−10 M. Final oxidation current values were plotted on a standard curve from 10^−6 M to 10^−9 M and expressed as pg of monoamine or metabolite per mg of tissue unless otherwise specified.
# On the final treatment day, animals were sacrificed 60 min post-LD treatment and left and right striata and dorsal raphe nucleus (DRN) were collected for high performance liquid chromatography (HPLC) analysis. Values (means±standard mean error) are expressed as picograms of monoamine or metabolite per milligram wet tissue weight. Turnover estimates were determined by dividing a subject's metabolite value by its corresponding monoamine.
smiles,measurement,setting,value
"NC12CC3CC(CC(C3)C1)C2 [Amantadine, 1-adamantanamine]","ALO AIMs, LID development",[1],"initially reduced AIMs, but this suppression diminished over time"
same,EC50 (plasma level reducing dyskinesia by 50%),dyskinesia,"1,400 ng/mL"
same,side effects,[2]; AMA 60 mg/kg,appeared to produce side effects
same,ALO AIMs,"[2]; AMA 20, 40, 60 mg/kg + L-DOPA",did not appear to alter AIMs
same,"ALO AIMs, combined amantadine and vilazodone",[2],counteracted by Amantadine
same,peak plasma concentrations,[3]; IR 100 mg twice a day,"< 1,000 ng/mL"
same,half-life,[3]; in vivo,around 17 hours
same,maximum plasma concentration,[3]; single dose 100 mg,around 220 ng/mL
same,% intact stepping,[4],may reduce improvements
Oc1cc2c(cc1O)CN(C(=S)NCCc1ccc(Cl)cc1)CCC2 [Capsazepine],IC50,TRPV1 ion channel,nanomolar to low micromolar range
Cc1ccc(Sc2ccccc2N2CCNCC2)c(C)c1 [Vortioxetine],SERT occupancy,SERT,50 to 80%
"Cl.N#Cc1ccc2[nH]cc(CCCCN3CCN(c4ccc5oc(C(N)=O)cc5c4)CC3)c2c1 [Vilazodone, 5-{4-[4-(5-cyano-3-indolyl)-butyl]-1-piperazinyl}-benzofuran-2-carboxamide hydrochloride]",change in extracellular levels of norepinephrine or dopamine,[5],no change
same,FAS vs baseline,[6]; LD 6 mg/kg alone or with VZD,"significant increases in stepping, relative to baseline, from Day 8 thereafter"
same,FAS vs VZD(0)+LD(6),"[6]; VZD 10 mg/kg + LD 6 mg/kg, by Day 15",significantly enhanced the pro-motor effects of L-DOPA
same,LID duration (time course),[7]; VZD 10 mg/kg + LD 6 mg/kg,little effect on LID duration
same,peak dyskinesia (time course),[7]; VZD 10 mg/kg + LD 6 mg/kg,reduced peak dyskinesia
same,summed ALO AIMs,"[7]; VZD 10 mg/kg, WAY 0.5 mg/kg, LD 6 mg/kg s.c.",significantly reduced ALO AIMs
same,ALO AIMs,[8],significantly reduced ALO AIMs
same,IC50,DAT,37 nM
same,striatal PPE mRNA,"[9]; lesioned striata, LD 6 mg/kg, VZD 20 mg/kg, day 23","modestly, though significantly reduced"
same,striatal PPD mRNA,"[9]; lesioned striata, LD 6 mg/kg, VZD 10/20 mg/kg, day 23",dose-dependently attenuated
same,striatal c-Fos mRNA,"[9]; lesioned striata, LD 6 mg/kg, VZD 10 or 20 mg/kg, day 23",diminished by either dose
same,striatal 5-HT1AR mRNA,"[9]; rat, in vivo",did not affect striatal 5-HT1AR mRNA
same,striatal PPT mRNA,"[9]; rat, in vivo",reduced striatal PPT
same,increase of [35S]GTPyS binding compared to vehicle,[10],fourfold
same,"ALO AIMs, established LID","[11]; VZD 10 or 20 mg/kg s.c. 5 min before LD 6 mg/kg, vs VZD(0)+LD(6), from first day, persisted throughout treatment",dramatically reduced AIMs
same,"anti-LID efficacy, 20 mg/kg vs 10 mg/kg",[11]; dissipated after the first week,initially had greater anti-LID efficacy than the lower dose
same,"ALO AIMs, LID development",[1],persistently reduced AIMs
same,"reduction of development and expression of LID, compared with Amantadine",[1]; validated rodent model,more effective than Amantadine
same,"ALO AIMs, LID development",[12],significantly attenuated the development of LID
same,LIDs severity,[13],most significant effect on attenuating LIDs
same,"ALO AIMs, combined amantadine and vilazodone",[2],continued to reduced AIMs
same,ALO AIMs,[2]; VZD 5 mg/kg + L-DOPA,moderately
same,ALO AIMs,[2]; VZD 1 and 2.5 mg/kg + L-DOPA,modestly reduced AIMs
same,IC50,NET,56 nM
same,FAS motor performance vs baseline,[14]; LD 6 mg/kg alone or with VZD 10/20 mg/kg,emerged 7 days later
same,FAS stepping vs VZD(0)+LD(6),"[14]; VZD 20 mg/kg, Day 29, transient",depressed stepping
same,spike probability and onset latency,[15],normalizes spike probability and onset latency
same,"side effects, like 5-HT syndrome",hemi-parkinsonian rats,weren't observed at any time point
same,forelimb akinesia / L-DOPA therapeutic (prokinetic) efficacy,[16],no effects on forelimb akinesia or L-DOPA-induced prokinetic effects
same,5-HIAA,"[17]; Dorsal Raphe Nucleus, VZD(10)+LD(6) mg/kg s.c.",12541 pg/mg wet tissue weight
same,5-HT Turnover,"[17]; Striatum Lesion, VZD(10)+LD(6) mg/kg s.c.",8.38
same,DRN 5-HT,[17]; VZD 10 mg/kg + LD,significantly increased DRN 5-HT
same,striatal 5-HIAA,[17]; VZD 20 mg/kg,attenuated 5-HIAA compared to all other treatments
same,striatal 5-HT Turnover,[17]; VZD 20 mg/kg vs VZD(0)+LD(0),reduced 5-HT Turnover
same,DRN DA Turnover,[17]; VZD 10 or 20 mg/kg + LD,DA Turnover was attenuated
same,DRN 5-HT Turnover,[17]; both doses VZD + LD,attenuated 5-HT Turnover
same,DA in lesioned striatum (planned comparisons),[17]; both doses VZD vs VZD vehicle groups,significantly increased DA in the lesioned striatum
